Assay results published in PubChem BioAssay (NCI).
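Results reflect a 48-hour exposure of cells in 96-well plates to compound at five concentrations. GI50 marks 50% less growth. TGI is the concentration that stops growth completely.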

Experiments:
Test in all cases: NCI-60 cell line screen, 48 h
786-0 renal = system: 786-0 renal
A498 renal = system: A498 renal
A549 NSCLC = system: A549 NSCLC
ACHN renal = system: ACHN renal
BT-549 breast = system: BT-549 breast
CAKI-1 renal = system: CAKI-1 renal
CCRF-CEM leukemia = system: CCRF-CEM leukemia
COLO 205 colon = system: COLO 205 colon
DU-145 prostate = system: DU-145 prostate
HCC-2998 colon = system: HCC-2998 colon
HCT-116 colon = system: HCT-116 colon
HCT-15 colon = system: HCT-15 colon
HL-60(TB) leukemia = system: HL-60(TB) leukemia
HOP-62 NSCLC = system: HOP-62 NSCLC
HOP-92 NSCLC = system: HOP-92 NSCLC
HS 578T breast = system: HS 578T breast
HT29 colon = system: HT29 colon
IGROV1 ovarian = system: IGROV1 ovarian
K-562 leukemia = system: K-562 leukemia
KM12 colon = system: KM12 colon
LOX IMVI melanoma = system: LOX IMVI melanoma
M14 melanoma = system: M14 melanoma
MALME-3M melanoma = system: MALME-3M melanoma
MCF7 breast = system: MCF7 breast
MDA-MB-231 breast = system: MDA-MB-231 breast
MDA-MB-435 = system: MDA-MB-435
MOLT-4 leukemia = system: MOLT-4 leukemia
NCI-H226 lung = system: NCI-H226 lung
NCI-H23 lung = system: NCI-H23 lung
NCI-H460 lung = system: NCI-H460 lung
NCI-H522 lung = system: NCI-H522 lung
NCI/ADR-RES ovarian = system: NCI/ADR-RES ovarian
OVCAR-3 ovarian = system: OVCAR-3 ovarian
OVCAR-4 ovarian = system: OVCAR-4 ovarian
OVCAR-5 ovarian = system: OVCAR-5 ovarian
OVCAR-8 ovarian = system: OVCAR-8 ovarian
PC-3 prostate = system: PC-3 prostate
RPMI-8226 leukemia = system: RPMI-8226 leukemia
SF-268 CNS = system: SF-268 CNS
SF-295 CNS = system: SF-295 CNS
SF-539 CNS = system: SF-539 CNS
SK-MEL-2 melanoma = system: SK-MEL-2 melanoma
SK-MEL-28 melanoma = system: SK-MEL-28 melanoma
SK-MEL-5 melanoma = system: SK-MEL-5 melanoma
SK-OV-3 ovarian = system: SK-OV-3 ovarian
SN12C renal = system: SN12C renal
SNB-19 CNS = system: SNB-19 CNS
SNB-75 CNS = system: SNB-75 CNS
SR leukemia = system: SR leukemia
SW-620 colon = system: SW-620 colon
T-47D breast = system: T-47D breast
TK-10 renal = system: TK-10 renal
U251 CNS = system: U251 CNS
UACC-257 melanoma = system: UACC-257 melanoma
UACC-62 melanoma = system: UACC-62 melanoma
UO-31 renal = system: UO-31 renal

## Cc1cc(Nc2cccc(F)c2)nc(NCc2ccccc2)n1
786-0 renal
  GI50: 6.62 µM
  TGI: 22.1 µM
A498 renal
  GI50: 2750 nM
  TGI: 10.7 µM
A549 NSCLC
  GI50: 6.44 µM
  TGI: 22.8 µM
ACHN renal
  GI50: 7.76 µM
  TGI: 26.1 µM
BT-549 breast
  GI50: 7.45 µM
  TGI: 23.2 µM
CAKI-1 renal
  GI50: 3.94 µM
  TGI: 17.8 µM
CCRF-CEM leukemia
  GI50: 4.75 µM
  TGI: 22.1 µM
COLO 205 colon
  GI50: 1730 nM
  TGI: 3.31 µM
DU-145 prostate
  GI50: 11.3 µM
  TGI: 23.9 µM
HCC-2998 colon
  GI50: 2000 nM
  TGI: 4.19 µM
HCT-116 colon
  GI50: 3.34 µM
  TGI: 18.2 µM
HCT-15 colon
  GI50: 4.98 µM
  TGI: 24.6 µM
HL-60(TB) leukemia
  GI50: 3.91 µM
  TGI: 17.2 µM
HOP-62 NSCLC
  GI50: 10.2 µM
  TGI: 23.4 µM
HOP-92 NSCLC
  GI50: 1810 nM
  TGI: 11 µM
HS 578T breast
  GI50: 7.26 µM
  TGI: 32.7 µM
HT29 colon
  GI50: 3.7 µM
  TGI: 13.4 µM
IGROV1 ovarian
  GI50: 5.44 µM
  TGI: 24.6 µM
K-562 leukemia
  GI50: 2890 nM
  TGI: 12.9 µM
KM12 colon
  GI50: 5.46 µM
  TGI: 19.7 µM
LOX IMVI melanoma
  GI50: 7.12 µM
  TGI: 28.7 µM
M14 melanoma
  GI50: 13.3 µM
  TGI: 30.8 µM
MALME-3M melanoma
  GI50: 3.8 µM
  TGI: 17.7 µM
MCF7 breast
  GI50: 3.14 µM
  TGI: 15.7 µM
MDA-MB-231 breast
  GI50: 3.28 µM
  TGI: 14.1 µM
MDA-MB-435
  GI50: 5.72 µM
  TGI: 20 µM
MOLT-4 leukemia
  GI50: 4.89 µM
  TGI: 19.8 µM
NCI-H226 lung
  GI50: 11.8 µM
  TGI: 35.2 µM
NCI-H23 lung
  GI50: 4.96 µM
  TGI: 21.9 µM
NCI-H460 lung
  GI50: 3.84 µM
  TGI: 15.8 µM
NCI-H522 lung
  GI50: 8.45 µM
  TGI: 24.7 µM
NCI/ADR-RES ovarian
  GI50: 6.38 µM
  TGI: 38 µM
OVCAR-3 ovarian
  GI50: 8.65 µM
  TGI: 21.7 µM
OVCAR-4 ovarian
  GI50: 4.42 µM
  TGI: 37.6 µM
OVCAR-5 ovarian
  GI50: 12.4 µM
  TGI: 29.9 µM
OVCAR-8 ovarian
  GI50: 3.9 µM
  TGI: 18.2 µM
PC-3 prostate
  GI50: 4.34 µM
  TGI: 18.7 µM
RPMI-8226 leukemia
  GI50: 2030 nM
  TGI: 7.97 µM
SF-268 CNS
  GI50: 11.3 µM
  TGI: 28.6 µM
SF-295 CNS
  GI50: 6.57 µM
  TGI: 27.1 µM
SF-539 CNS
  GI50: 10.8 µM
  TGI: 24.7 µM
SK-MEL-2 melanoma
  GI50: 11 µM
  TGI: 25.4 µM
SK-MEL-28 melanoma
  GI50: 7.21 µM
  TGI: 20.6 µM
SK-MEL-5 melanoma
  GI50: 2730 nM
  TGI: 10.1 µM
SK-OV-3 ovarian
  GI50: 10.6 µM
  TGI: 22.5 µM
SN12C renal
  GI50: 6.12 µM
  TGI: 23 µM
SNB-19 CNS
  GI50: 11.1 µM
  TGI: 26.8 µM
SNB-75 CNS
  GI50: 799 nM
  TGI: 13 µM
SR leukemia
  GI50: 3.28 µM
  TGI: 10.1 µM
SW-620 colon
  GI50: 6.62 µM
  TGI: 23.7 µM
T-47D breast
  GI50: 3.71 µM
  TGI: 18.5 µM
TK-10 renal
  GI50: 8.29 µM
  TGI: 21.4 µM
U251 CNS
  GI50: 3.32 µM
  TGI: 8.34 µM
UACC-257 melanoma
  GI50: 3.95 µM
  TGI: 15.5 µM
UACC-62 melanoma
  GI50: 5.61 µM
  TGI: 20.2 µM
UO-31 renal
  GI50: 3.26 µM
  TGI: 19.3 µM
